The values below come from PMC4753328, “Muscle-Type Nicotinic Receptor Blockade by Diethylamine, the Hydrophilic Moiety of Lidocaine” (Frontiers in Molecular Neuroscience, 2016).

Structures are written as SMILES.

Test [1] concerns the target T1, muscle-type nicotinic acetylcholine receptor (nAChR) (Torpedo marmorata, UniProt P02711+Q6S3H8+Q6S3H9+Q6S3I0).
T1 construct: gene CHRNA1; native nAChR purified from electroplax, reconstituted in asolectin lipids and microtransplanted to Xenopus oocytes; with β, γ and δ subunits of the heteropentamer
In words: two-electrode voltage clamp, ACh concentration-current curve (agonist). The format is cell-based. For orientation: In two-electrode clamp one electrode senses voltage and the other passes current.

In test [2] the target is T1, muscle-type nicotinic acetylcholine receptor (nAChR). In words: two-electrode voltage clamp, inhibition of currents evoked by […] ACh at −[…] mV. Type of test: cell-based.

T1 sequence (P02711 25-461): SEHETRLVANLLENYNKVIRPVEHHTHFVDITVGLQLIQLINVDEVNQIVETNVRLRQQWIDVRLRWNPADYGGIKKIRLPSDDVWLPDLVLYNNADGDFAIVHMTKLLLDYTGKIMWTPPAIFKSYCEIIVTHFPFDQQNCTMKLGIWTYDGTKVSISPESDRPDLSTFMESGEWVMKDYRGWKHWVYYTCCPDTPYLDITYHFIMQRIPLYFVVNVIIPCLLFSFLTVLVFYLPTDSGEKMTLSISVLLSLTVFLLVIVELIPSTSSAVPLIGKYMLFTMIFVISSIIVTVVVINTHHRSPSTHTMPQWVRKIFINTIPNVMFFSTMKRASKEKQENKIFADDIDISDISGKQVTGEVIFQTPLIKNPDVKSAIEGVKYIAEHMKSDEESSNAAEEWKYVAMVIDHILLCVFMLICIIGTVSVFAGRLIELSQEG
T1 sequence (Q6S3I0 25-493): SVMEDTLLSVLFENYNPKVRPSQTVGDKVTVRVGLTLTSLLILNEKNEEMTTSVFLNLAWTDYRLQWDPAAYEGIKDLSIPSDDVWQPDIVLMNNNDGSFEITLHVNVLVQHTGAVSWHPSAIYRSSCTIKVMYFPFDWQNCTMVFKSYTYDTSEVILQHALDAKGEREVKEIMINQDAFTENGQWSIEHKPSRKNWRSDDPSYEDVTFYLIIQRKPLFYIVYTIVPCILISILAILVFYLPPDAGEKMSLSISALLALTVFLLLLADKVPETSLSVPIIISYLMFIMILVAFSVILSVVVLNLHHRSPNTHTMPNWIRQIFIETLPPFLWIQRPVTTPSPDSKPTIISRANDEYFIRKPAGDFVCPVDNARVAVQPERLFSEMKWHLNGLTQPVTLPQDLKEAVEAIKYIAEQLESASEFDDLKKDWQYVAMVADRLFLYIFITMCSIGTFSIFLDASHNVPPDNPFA
T1 sequence (Q6S3H9 18-505): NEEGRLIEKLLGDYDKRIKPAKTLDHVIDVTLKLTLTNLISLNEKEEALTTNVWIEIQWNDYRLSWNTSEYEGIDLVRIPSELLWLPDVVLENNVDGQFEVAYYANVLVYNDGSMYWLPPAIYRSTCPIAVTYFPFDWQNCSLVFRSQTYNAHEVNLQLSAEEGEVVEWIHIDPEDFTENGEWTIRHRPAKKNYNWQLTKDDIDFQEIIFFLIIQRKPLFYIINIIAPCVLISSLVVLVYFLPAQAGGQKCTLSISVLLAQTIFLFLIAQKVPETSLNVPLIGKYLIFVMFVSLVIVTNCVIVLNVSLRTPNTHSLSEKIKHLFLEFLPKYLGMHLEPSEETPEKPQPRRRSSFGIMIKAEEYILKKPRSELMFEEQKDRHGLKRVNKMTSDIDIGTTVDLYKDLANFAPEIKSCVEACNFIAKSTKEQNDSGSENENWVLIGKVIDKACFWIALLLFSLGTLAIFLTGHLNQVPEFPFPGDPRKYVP
T1 sequence (Q6S3H8 22-522): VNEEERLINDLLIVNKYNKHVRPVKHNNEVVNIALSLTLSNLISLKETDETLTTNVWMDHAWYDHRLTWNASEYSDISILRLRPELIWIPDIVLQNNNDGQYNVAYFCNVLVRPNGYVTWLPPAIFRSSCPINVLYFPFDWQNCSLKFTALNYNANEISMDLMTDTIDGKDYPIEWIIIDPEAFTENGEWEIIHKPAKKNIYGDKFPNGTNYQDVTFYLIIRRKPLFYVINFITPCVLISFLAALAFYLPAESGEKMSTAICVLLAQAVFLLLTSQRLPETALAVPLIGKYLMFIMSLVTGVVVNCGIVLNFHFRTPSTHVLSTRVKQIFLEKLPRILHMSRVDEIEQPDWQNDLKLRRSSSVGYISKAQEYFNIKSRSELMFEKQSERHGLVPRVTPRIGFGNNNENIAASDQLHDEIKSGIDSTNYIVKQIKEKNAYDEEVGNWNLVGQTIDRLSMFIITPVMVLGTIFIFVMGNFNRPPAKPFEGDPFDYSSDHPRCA

Broadly, the EC50 is the midpoint of the concentration-response curve. A lower EC50 goes with an effect from little substance. Compound `CC(=O)OCC[N+](C)(C)C` [ACh, acetylcholine] gave an EC50 in test [1] of 46 µM.
Usually IC50 stands for the concentration that gives 50% inhibition. A low value points to higher potency. As for `CCNCC` [DEA, diethylamine], half-maximal inhibition in test [2] (IC50) was put at 68 µM.
